In patent publication US9156801B2, “2-substituted oleanolic acid derivative, method preparing for same, and application thereof” (HANGZHOU BENSHENG PHARMACEUTICAL CO., LTD., priority 2011, dated 2015):
In brackets after ≈: the same amount, converted by molar mass.

Key:
RPMI8226 cell line = experiment: multiple myeloma cell growth inhibition, MTT; format: cell-based; conditions: Homo sapiens, RPMI-8226; for inhibition at 16 µg/mL: RPMI8226, 16 μg/mL compound, 72 h, read-out: IR (cell proliferation inhibition rate); for IC50: RPMI8226, 72 h
Description: Multiple myeloma cell lines: RPMI8226 (multiple myeloma), purchased from Fuxiang Bio-tech Co. Ltd., Shanghai, China.
(§1) Obtaining 6000 well-growing cells as above and inoculating them into wells of a 96-well cell culture plate. The culture medium is the 1640 cell culture medium containing 10% fetal bovine serum. After adding the 2-substituted oleanolic acid derivatives of different concentrations and mixing uniformly, placing the plate in a carbon dioxide cell incubator (5% CO2) at 37° C. and incubated for 72 hours. Then the relative number of viable cells is determined by MTT method. In this experiment, cell proliferation inhibition rate in control group (not treated with any compound) is set as 0%.

PC-3 cell line = experiment: solid tumor cell growth inhibition, MTT; format: cell-based; conditions: Homo sapiens; for IC50: PC-3, 72 h; for inhibition at 16 µg/mL: PC-3, 16 μg/mL compound, 72 h, read-out: IR (cell proliferation inhibition rate)
Description: (§2) Hep-2 (laryngeal carcinoma), A549 (human lung cancer), CaES-17 (esophageal cancer cell), PC-3 (prostate cancer), CNE (nasopharyngeal carcinoma cell), and SK-OV-3 (ovarian cancer cell), all of which are purchased from China Center For Type Culture Collection; RKO (human colon adenocarcinoma cell), MGC 803 (human gastric cancer cell), MG63 (osteosarcoma) and U87 MG (malignant glioma cell), all of which are purchased from Fuxiang Bio-tech Co. Ltd., Shanghai, China; PANC-1 (pancreatic cancer), Hep G2 (human liver cancer cell), Becap37 (human breast cancer cell), and Hela (human cervical cancer cell), all of which are donated by Cancer Research Institute of Zhejiang University, China.
(§3) Obtaining 4000 well-growing human solid tumor cells and inoculating them into wells of a 96-well cell culture plate. The culture medium is DMEM High Glucose cell culture medium containing 10% fetal bovine serum. The plate is placed in a carbon dioxide cell incubator (5% CO2) at 37° C. for 24 hours. After adding the 2-substituted oleanolic acid derivatives of different concentrations and mixing uniformly, the plate is placed in a carbon dioxide cell incubator (5% CO2) at 37° C. and incubated for 72 hours. Then the relative number of the living cells is determined by MTT method. In this experiment, the cell proliferation inhibition rate in control group (not treated with any compound) is set as 0%.

RKO cell line = experiment: solid tumor cell growth inhibition, MTT; format: cell-based; conditions: Homo sapiens, 72 h; for inhibition at 16 µg/mL: 16 μg/mL compound, read-out: IR (cell proliferation inhibition rate)
Description: as §2, §3

MGC 803 cell line = experiment: solid tumor cell growth inhibition, MTT; format: cell-based; conditions: Homo sapiens; for inhibition at 16 µg/mL: MGC 803, 16 μg/mL compound, 72 h, read-out: IR (cell proliferation inhibition rate); for IC50: MGC 803, 72 h
Description: as §2, §3

MG-63 cell line = experiment: solid tumor cell growth inhibition, MTT; format: cell-based; conditions: Homo sapiens; for IC50: MG-63, 72 h; for inhibition at 16 µg/mL: MG-63, 16 μg/mL compound, 72 h, read-out: IR (cell proliferation inhibition rate)
Description: as §2, §3

Hela cell line = experiment: solid tumor cell growth inhibition, MTT; format: cell-based; conditions: Homo sapiens, 72 h; for IC50: HeLa; for inhibition at 16 µg/mL: Hela, 16 μg/mL compound, read-out: IR (cell proliferation inhibition rate)
Description: as §2, §3

CaES-17 cell line = experiment: solid tumor cell growth inhibition, MTT; format: cell-based; conditions: Homo sapiens, CaEs17; for inhibition at 16 µg/mL: CaES-17, 16 μg/mL compound, 72 h, read-out: IR (cell proliferation inhibition rate); for IC50: CaES-17, 72 h
Description: as §2, §3

Hep-2 cell line = experiment: solid tumor cell growth inhibition, MTT; format: cell-based; conditions: Homo sapiens; for IC50: HEp-2, 72 h; for inhibition at 16 µg/mL: Hep-2, 16 μg/mL compound, 72 h, read-out: IR (cell proliferation inhibition rate)
Description: as §2, §3

Becap37 cell line = experiment: solid tumor cell growth inhibition, MTT; format: cell-based; conditions: Homo sapiens; for inhibition at 16 µg/mL: Becap37, 16 μg/mL compound, 72 h, read-out: IR (cell proliferation inhibition rate); for IC50: Becap37, 72 h
Description: as §2, §3

SK-OV-3 cell line = experiment: solid tumor cell growth inhibition, MTT; format: cell-based; conditions: Homo sapiens; for IC50: SK-OV-3, 72 h; for inhibition at 16 µg/mL: SK-OV-3, 16 μg/mL compound, 72 h, read-out: IR (cell proliferation inhibition rate)
Description: as §2, §3

U87 MG cell line = experiment: solid tumor cell growth inhibition, MTT; format: cell-based; conditions: Homo sapiens, U-87 MG, 72 h; for inhibition at 16 µg/mL: 16 μg/mL compound, read-out: IR (cell proliferation inhibition rate)
Description: as §2, §3

PANC-1 cell line = experiment: solid tumor cell growth inhibition, MTT; format: cell-based; conditions: Homo sapiens; for IC50: PANC-1, 72 h; for inhibition at 16 µg/mL: PANC-1, 16 μg/mL compound, 72 h, read-out: IR (cell proliferation inhibition rate)
Description: as §2, §3

CNE cell line = experiment: solid tumor cell growth inhibition, MTT; format: cell-based; conditions: Homo sapiens, 72 h; for inhibition at 16 µg/mL: 16 μg/mL compound, read-out: IR (cell proliferation inhibition rate)
Description: as §2, §3

A549 cell line = experiment: solid tumor cell growth inhibition, MTT; format: cell-based; conditions: Homo sapiens; for IC50: A549, 72 h; for inhibition at 16 µg/mL: A549, 16 μg/mL compound, 72 h, read-out: IR (cell proliferation inhibition rate)
Description: as §2, §3

Hep G2 cell line = experiment: solid tumor cell growth inhibition, MTT; format: cell-based, human; conditions: Homo sapiens; for inhibition at 16 µg/mL: HepG2, 72 h, Hep G2, 16 μg/mL compound, 72 h, read-out: IR (cell proliferation inhibition rate); for IC50: HepG2, Hep G2, 72 h
Description: as §2, §3

Jurkat cell line = experiment: leukemia cell growth inhibition, MTT; format: cell-based; conditions: Homo sapiens, 72 h; for inhibition at 16 µg/mL: 16 μg/mL compound, read-out: IR (cell proliferation inhibition rate)
Text: (§4) Leukemia cell lines: leukemia cell lines: K562/adr (drug-resistant, chronic myeloid leukemia, CML), NB4 (acute promyelocytic leukemia, AML), Kasumi-1 (acute myeloid leukemia M2 type, AML-M2), Jurkat (acute lymphoblastic leukemia, ALL), all of which are donated by Cancer Research Institute of Zhejiang University, China; and H9 (acute lymphoblastic leukemia, ALL), which is purchased from China Center for Type Culture Collection (CCTCC).
as §1, with “well-growing leukemia” for “well-growing”, “cells” for “cells as above”

H9 cell line = experiment: leukemia cell growth inhibition, MTT; format: cell-based; conditions: Homo sapiens; for IC50: H9, 72 h; for inhibition at 16 µg/mL: H9, 16 μg/mL compound, 72 h, read-out: IR (cell proliferation inhibition rate)
Text: as §4
as §1, with “well-growing leukemia” for “well-growing”, “cells” for “cells as above”

NB4 cell line = experiment: leukemia cell growth inhibition, MTT; format: cell-based; conditions: Homo sapiens, NB-4; for inhibition at 16 µg/mL: NB4, 16 μg/mL compound, 72 h, read-out: IR (cell proliferation inhibition rate); for IC50: NB4, 72 h
Text: as §4
as §1, with “well-growing leukemia” for “well-growing”, “cells” for “cells as above”

K562/adr cell line = experiment: leukemia cell growth inhibition, MTT; format: cell-based; conditions: Homo sapiens, 72 h; for IC50: K562/Adr; for inhibition at 16 µg/mL: K562/adr, 16 μg/mL compound, read-out: IR (cell proliferation inhibition rate)
Text: as §4
as §1, with “well-growing leukemia” for “well-growing”, “cells” for “cells as above”

Kasumi-1 cell line = experiment: leukemia cell growth inhibition, MTT; format: cell-based; conditions: Homo sapiens; for inhibition at 16 µg/mL: Kasumi-1, 16 μg/mL compound, 72 h, read-out: IR (cell proliferation inhibition rate); for IC50: Kasumi-1, 72 h
Text: as §4
as §1, with “well-growing leukemia” for “well-growing”, “cells” for “cells as above”

## COC(=O)[C@]12CCC(C)(C)CC1C1=CCC3[C@@]4(C)CC(C(=O)NCCCN5CCCC5)C(=O)C(C)(C)C4CC[C@@]3(C)[C@]1(C)CC2 (some centres unmarked) [BS-OA-016]
RPMI8226 cell line
  inhibition at 16 µg/mL: 99%
  IC50: 1.15 µg/mL (≈ 1.85 µM)
PC-3 cell line
  IC50: 5.06 µg/mL (≈ 8.12 µM)
  inhibition at 16 µg/mL: 99.8%
RKO cell line
  inhibition at 16 µg/mL: 99.4%
  IC50: 3.33 µg/mL (≈ 5.35 µM)
MGC 803 cell line
  inhibition at 16 µg/mL: 99.1%
  IC50: 3 µg/mL (≈ 4.82 µM)
MG-63 cell line
  IC50: 4.35 µg/mL (≈ 6.98 µM)
  inhibition at 16 µg/mL: 100%
Hela cell line
  IC50: 3.78 µg/mL (≈ 6.07 µM)
  inhibition at 16 µg/mL: 98%
CaES-17 cell line
  inhibition at 16 µg/mL: 99.4%
  IC50: 3.93 µg/mL (≈ 6.31 µM)
Hep-2 cell line
  IC50: 5.85 µg/mL (≈ 9.39 µM)
  inhibition at 16 µg/mL: 97.2%
Becap37 cell line
  inhibition at 16 µg/mL: 99.5%
  IC50: 5.12 µg/mL (≈ 8.22 µM)
SK-OV-3 cell line
  IC50: 5.04 µg/mL (≈ 8.09 µM)
  inhibition at 16 µg/mL: 99.5%
U87 MG cell line
  inhibition at 16 µg/mL: 100%
  IC50: 2.45 µg/mL (≈ 3.93 µM)
PANC-1 cell line
  IC50: 4.38 µg/mL (≈ 7.03 µM)
  inhibition at 16 µg/mL: 98.5%
CNE cell line
  inhibition at 16 µg/mL: 99.4%
  IC50: 4.07 µg/mL (≈ 6.53 µM)
A549 cell line
  IC50: 2.45 µg/mL (≈ 3.93 µM)
  inhibition at 16 µg/mL: 96.8%
Hep G2 cell line
  inhibition at 16 µg/mL: > 96%
  IC50: 2.58 µg/mL (≈ 4.14 µM)
Jurkat cell line
  inhibition at 16 µg/mL: 95.1%
  IC50: 2.38 µg/mL (≈ 3.82 µM)
H9 cell line
  IC50: 2.96 µg/mL (≈ 4.75 µM)
  inhibition at 16 µg/mL: 95.4%
NB4 cell line
  inhibition at 16 µg/mL: 99.8%
  IC50: 2.94 µg/mL (≈ 4.72 µM)
K562/adr cell line
  IC50: 0.52 µg/mL (≈ 0.835 µM)
  inhibition at 16 µg/mL: 97.8%
Kasumi-1 cell line
  inhibition at 16 µg/mL: 99.1%
  IC50: 3.76 µg/mL (≈ 6.04 µM)

## COC(=O)[C@]12CCC(C)(C)CC1C1=CCC3[C@@]4(C)CC(C(=O)NCCc5cccnc5)C(=O)C(C)(C)C4CC[C@@]3(C)[C@]1(C)CC2 (some centres unmarked) [BS-OA-027]
RPMI8226 cell line
  inhibition at 16 µg/mL: 86.5%
  IC50: 6.1 µg/mL (≈ 9.89 µM)
PC-3 cell line
  IC50: 7.79 µg/mL (≈ 12.6 µM)
  inhibition at 16 µg/mL: 68.9%
RKO cell line
  inhibition at 16 µg/mL: 46.8%
  IC50: 16 µg/mL (≈ 25.9 µM)
MGC 803 cell line
  inhibition at 16 µg/mL: 80.1%
  IC50: 9.96 µg/mL (≈ 16.1 µM)
MG-63 cell line
  IC50: > 16 µg/mL
  inhibition at 16 µg/mL: 25.4%
Hela cell line
  IC50: 10.8 µg/mL (≈ 17.4 µM)
  inhibition at 16 µg/mL: 62%
CaES-17 cell line
  inhibition at 16 µg/mL: 49.5%
  IC50: 17 µg/mL (≈ 27.5 µM)
Hep-2 cell line
  IC50: > 16 µg/mL
  inhibition at 16 µg/mL: 35.5%
Becap37 cell line
  inhibition at 16 µg/mL: 34.3%
  IC50: > 16 µg/mL
SK-OV-3 cell line
  IC50: 6.63 µg/mL (≈ 10.7 µM)
  inhibition at 16 µg/mL: 91.6%
U87 MG cell line
  inhibition at 16 µg/mL: 48.7%
  IC50: 16 µg/mL (≈ 25.9 µM)
PANC-1 cell line
  IC50: > 16 µg/mL
  inhibition at 16 µg/mL: 36.9%
CNE cell line
  inhibition at 16 µg/mL: 51.3%
  IC50: 15.6 µg/mL (≈ 25.3 µM)
A549 cell line
  IC50: > 16 µg/mL
  inhibition at 16 µg/mL: 45.6%
Hep G2 cell line
  inhibition at 16 µg/mL: 51.4%
  IC50: 15.6 µg/mL (≈ 25.3 µM)
Jurkat cell line
  inhibition at 16 µg/mL: 83.4%
  IC50: 9.85 µg/mL (≈ 16 µM)
H9 cell line
  IC50: 7.72 µg/mL (≈ 12.5 µM)
  inhibition at 16 µg/mL: 92.5%
NB4 cell line
  inhibition at 16 µg/mL: 93.8%
  IC50: 4.57 µg/mL (≈ 7.41 µM)
K562/adr cell line
  IC50: 3.7 µg/mL (≈ 6 µM)
  inhibition at 16 µg/mL: 82.6%
Kasumi-1 cell line
  inhibition at 16 µg/mL: 72.2%
  IC50: 12.4 µg/mL (≈ 20.1 µM)
